According to US20250353831A1, “NOVEL HETEROBICYCLIC COMPOUND FOR INHIBITING YAP-TEAD INTERACTION AND PHARMACEUTICAL COMPOSITION COMPRISING SAME” (priority 2022, published 2025):

Columns and labels:
TEAD = TEAD reporter activity inhibition test (luciferase reporter in MCF7 cell line); assay type: cell-based; conditions: Homo sapiens; MCF7 TEAD (GTIIC) firefly luciferase reporter cell line, 24 hours, ONE-Glo luminescence; read-out: IC50 on TEAD transcription activity
Procedure: The ability of the synthetic compounds to inhibit transcription of a target gene by TEAD was measured. This evaluation method was a method of measuring transcriptional activity of TEAD by measuring luminescence intensity of luciferase expressed in the case where TEAD binds to a target gene and activates transcription thereof, by using MCF7 cell line (BPS Bioscienc, Inc., USA) constructed by introducing firefly luciferase reporter gene into GTIIC (5′-ACATTCCA-3′), which is a specific binding structure of TEAD. The cell line was cultured in a MEM medium supplemented with 10% FBS, 1% Penicillin/Streptomycin, 1% non-essential amino acids, 10 μg/ml insulin, and 400 μg/ml Geneticin. In the test of inhibiting the TEAD reporter activity, Geneticin was excluded. The cells were aliquoted into a white 96-well plate at a density of 4×10^4 cells/100 μl and cultured for 6 hours. 50 μl of the test compound diluted to 3× concentration was mixed with each well. After culturing the cell line for 24 hours, signals of luciferase were measured by luminescence according to manufacturer's protocols by using ONE-Glo luciferase assay system (Promega, E6120). A 50% inhibitory concentration (IC50) on TEAD transcription activity was calculated by using GraphPad Prism 9.
An IC50 value less than 100 nM was expressed as A, an IC50 value not less than 100 nM but less than 500 nM was expressed as B, and an IC50 value not less than 500 nM was expressed as C.

NCI-H226 cells = test: Cell growth inhibition test (SRB) in NCI-H226 cells; assay type: cell-based; conditions: Homo sapiens, 144 h, NCI-H226 NF2 gene-deficient mesothelioma cancer cell line, 6 days
Procedure: The ability of the synthetic compounds to inhibit the growth of NCI-H226 cells was identified. NCI-H226, which is an NF2 gene-deficient mesothelioma cancer cell line, was cultured in a RPMI 1640 medium supplemented with 10% FBS and 1% Penicillin/Streptomycin. The cultured cells were aliquoted into a 96-well plate at a density of 0.7×10^3 cells/100 μl and cultured for 24 hours, and then 100 μl of a test compound diluted to 2× concentration was mixed with each well and cultured for 6 days. SRB test method was used to measure cell growth inhibition, and a 50% inhibitory concentration (GI50) on cell growth by the compound was calculated by using GraphPad Prism 9.
A GI50value less than 100 nM was expressed as A and a GI50 value not less than 100 nM was expressed as B.

Row | SMILES | IC50 (TEAD) [nM] | GI50 (NCI-H226 cells) [nM]
1 | C=CC(=O)Nc1ccc2c(c1)c(-c1cn(CCOC)cn1)cn2-c1ccc(C(F)(F)F)cc1 [Synthetic compound 7, N-(3-(1-(2-methoxyethyl)-1H-imidazol-4-yl)-1-(4-(trifluoromethyl)phenyl)-1H-indol-5-yl)acrylamide] | < 100 | < 100
2 | C=C(F)C(=O)Nc1ccc2c(c1)c(-c1cn(C)cn1)cn2-c1ccc(C(F)(F)F)cc1 [Synthetic compound 6, 2-fluoro-N-(3-(1-methyl-1H-imidazol-4-yl)-1-(4-(trifluoromethyl)phenyl)-1H-indol-5-yl) acrylamide] | 100 to 500 | 
3 | C=CC(=O)Nc1ccc2c(c1)c(-c1cn(C)cn1)cn2-c1ccc(C(F)(F)F)cc1 [Synthetic compound 9, N-(3-(1-methyl-1H-imidazol-4-yl)-1-(4-(trifluoromethyl)phenyl)-1pyrrolo[2,3-b]pyridin-5-yl)acrylamide] | < 100 | < 100
4 | C=CC(=O)Nc1ccc2c(c1)c(-c1cn(C3CC3)cn1)cn2-c1ccc(C(F)(F)F)cc1 [Synthetic compound 2, N-(3-(1-cyclopropyl-1H-imidazol-4-yl)-1-(4-(trifluoromethyl)phenyl)-1H-indol-5-yl) acrylamide] | < 100 | < 100
5 | C=CC(=O)Nc1ccc2c(c1)c(-c1cn(C3CCC3)cn1)cn2-c1ccc(C(F)(F)F)cc1 [Synthetic compound 4, N-(3-(1-cyclobutyl-1H-imidazol-4-yl)-1-(4-(trifluoromethyl)phenyl)-1H-indol-5-yl)acrylamide] | < 100 | < 100

The next lines start with the values.

Row | IC50 (TEAD) [nM] | GI50 (NCI-H226 cells) [nM] | SMILES
6 | 100 to 500 |  | C=CC(=O)Nc1cc2c(-c3cn(C)cn3)cn(-c3ccc(C(F)(F)F)cc3)c2cc1Cl [Synthetic compound 10, N-(6-chloro-3-(1-methyl-1H-imidazol-4-yl)-1-(4-(trifluoromethyl)phenyl)-1H-indol-5-yl)acrylamide]
7 | < 100 | < 100 | C=CC(=O)Nc1ccc2c(c1)c(-c1ccccc1F)cn2-c1ccc(C(F)(F)F)cc1 [Synthetic compound 5, N-(3-(2-fluorophenyl)-1-(4-(trifluoromethyl)phenyl)-1H-indol-5-yl)acrylamide]
8 | < 100 | < 100 | C=CC(=O)Nc1cnc2c(c1)c(-c1cn(C3CC3)cn1)cn2-c1ccc(C(F)(F)F)cc1 [Synthetic compound 8, N-(3-(1-cyclopropyl-1H-imidazol-4-yl)-1-(4-(trifluoromethyl)phenyl)-1H-pyrrolo[2,3-b]pyridin-5-yl)acrylamide]
9 | < 100 | < 100 | C=CC(=O)Nc1ccc2c(c1)c(-c1ccco1)cn2-c1ccc(C(F)(F)F)cc1 [Synthetic compound 3, N-(3-(furan-2-yl)-1-(4-(trifluoromethyl)phenyl)-1H-indol-5-yl)acrylamide]
